SMILES strings stand for the structures.

The subject of one assay is up-regulation of ICAM-1 (CD54) by IFNγ in A549 lung epithelial cells. Nature of the assay: A549 Epithelial Line Stimulated with IFNγ (ICAM-1 surface expression, FACS). In kind it is cell-based, human. As to conditions: A549 cells stimulated with IFNγ, ICAM-1 expression by FACS; read-out: IC50, Example 43. In short, it runs like this: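 ICAM-1 (CD54) flow cytometry on live-gated A549 cells, geometric mean versus dose giving EC50. Cells received IFNγ at 75 ng/mL for 24 h after a 1 h compound pre-treatment spanning 30 μM to 14 nM in medium with 5% FBS and 0.3% DMSO.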
(In general: A flow cytometer gives signals particle by particle.)
For the molecule `Cc1ccc(Nc2ncc(F)c(Nc3ccc4c(c3)CCN4S(C)(=O)=O)n2)cc1S(N)(=O)=O` [VII-61, N2-(3-Aminosulfonyl-4-methylphenyl)-5-fluoro-N4-[4-(1-methylsulfonyl)indolin-5-yl]-2,4-pyrimidinediamine], the IC50 (as a rule, the concentration needed to halve the response being measured) came to 2.69 µM.

The same assay, now with this note: A549 epithelial line stimulated with IFNγ; ICAM-1 expression by FACS; read-out: IC50, Example 43.
Consider `Cc1cc(Nc2nc(Nc3ccc(S(N)(=O)=O)cc3)ncc2F)ccc1OC(C)C#N` (racemic) [Compound I-60, Racemic N2-(4-Aminosulfonyl)phenyl-N4-[4-(1-cyano)ethoxy-3-methyl]phenyl-5-fluoro-2,4-pyrimidinediamine], for which the IC50 stood at 7.89 µM. As for `Cc1cc(Nc2nc(Nc3ccc(C)c(S(N)(=O)=O)c3)ncc2F)ccc1OC(C)C#N` (racemic) [Compound I-62, Racemic N2-(3-Aminosulfonyl-4-methyl)phenyl-N4-[4-(1-cyano)ethoxy-3-methyl]phenyl-5-fluoro-2,4-pyrimidinediamine], the IC50 came out at 3.53 µM. The same measure, in the same setting: to `Cc1cc(Nc2nc(Nc3ccc(S(N)(=O)=O)cc3)ncc2F)cc(C)c1OC(C)C#N` (racemic) [Compound I-63, Racemic N2-(4-Aminosulfonyl)phenyl-N4-[4-(1-cyano)ethoxy-3,5-dimethyl]phenyl-5-fluoro-2,4-pyrimidinediamine] belongs 34.3 µM; to `COc1cc(Nc2ncc(F)c(Nc3ccc(OC(C)C#N)c(C)c3)n2)ccc1S(N)(=O)=O` (racemic) [Compound I-64, Racemic N2-(4-Aminosulfonyl-3-methoxy)phenyl-N4-[4-(1-cyano)ethoxy-3-methyl]phenyl-5-fluoro-2,4-pyrimidinediamine], 5.17 µM. In the case of `Cc1ccc(Nc2ncc(F)c(Nc3ccc(OC(C)C#N)cc3)n2)cc1S(N)(=O)=O` (racemic) [Compound I-67, Racemic N2-(3-Aminosulfonyl-4-methyl)phenyl-N4-[4-(1-cyano)ethoxy]phenyl-5-fluoro-2,4-pyrimidinediamine], the IC50 was 4.62 µM.

In the case of `CC(C#N)Oc1ccc(Nc2nc(Nc3ccc(F)c(S(N)(=O)=O)c3)ncc2F)cc1` (racemic) [Compound I-68, Racemic N2-(3-Aminosulfonyl-4-fluoro)phenyl-N4-[4-(1-cyano)ethoxy]phenyl-5-fluoro-2,4-pyrimidinediamine], the IC50 is 4.96 µM. The same measure, in the same setting: as for `Cc1cc(Nc2nc(Nc3ccc(F)c(S(N)(=O)=O)c3)ncc2F)ccc1OC(C)C#N` (racemic) [Compound I-69, Racemic N2-(3-Aminosulfonyl-4-fluoro)phenyl-N4-[4-(1-cyano)ethoxy-3-methyl]phenyl-5-fluoro-2,4-pyrimidinediamine], the figure is 5.64 µM; as for `COc1cc(Nc2ncc(F)c(Nc3ccc(OC(C)C#N)cc3)n2)ccc1S(N)(=O)=O` (racemic) [Compound I-70, Racemic N2-(4-Aminosulfonyl-3-methoxy)phenyl-N4-[4-(1-cyano)ethoxy]phenyl-5-fluoro-2,4-pyrimidinediamine], 3.43 µM. Still for that read-out and setting: as for `Cc1cc(Nc2nc(Nc3cccc(S(N)(=O)=O)c3)ncc2F)cc(C)c1OC(C)C#N` (racemic) [Compound I-71, Racemic N2-(3-Aminosulfonyl)phenyl-N4-[4-(1-cyano)ethoxy-3,5-dimethyl]phenyl-5-fluoro-2,4-pyrimidinediamine], the figure is 3.27 µM. Still for that read-out and setting: to `Cc1ccc(Nc2ncc(F)c(Nc3cc(C)c(OC(C)C#N)c(C)c3)n2)cc1S(N)(=O)=O` (racemic) [Compound I-72, Racemic N2-(3-Aminosulfonyl-4-methyl)phenyl-N4-[4-(1-cyano)ethoxy-3,5-dimethyl]phenyl-5-fluoro-2,4-pyrimidinediamine] belongs 3.31 µM. On to `N#CCOc1cccc(Nc2nc(Nc3cccc(S(N)(=O)=O)c3)ncc2F)c1` [Compound I-4, N2-(3-Aminosulfonyl)phenyl-N4-(3-cyanomethoxy)phenyl-5-fluoro-2,4-pyrimidinediamine], for which the IC50 was found to be 4.86 µM. As for `Cc1cc(Nc2nc(Nc3ccc(F)c(S(N)(=O)=O)c3)ncc2F)cc(C)c1OCC#N` [Compound I-35, N2-(3-Aminosulfonyl-4-fluoro)phenyl-N4-(4-cyanomethoxy-3,5-dimethyl)phenyl-5-fluoro-2,4-pyrimidinediamine], the IC50 amounted to 8.58 µM. For the molecule `Cc1ccc(Nc2ncc(F)c(Nc3ccc(OCC#N)c(Cl)c3)n2)cc1S(N)(=O)=O` [Compound I-43, N2-(3-Aminosulfonyl-4-methylphenyl)-N4-(3-chloro-4-cyanomethoxypheny)-5-fluoro-2,4-pyrimidinediamine], the IC50 was found to be 36.7 µM. On the same count and under the same terms, to `Cc1ccc(Nc2ncc(F)c(Nc3ccc(OC(C)(C)C#N)cc3)n2)cc1S(N)(=O)=O` [Compound I-73, N2-(3-Aminosulfonyl-4-methyl)phenyl-N4-[4-(1-cyano-1-methyl)ethoxy]phenyl-5-fluoro-2,4-pyrimidinediamine] belongs 5.56 µM; to `CC(C)(C#N)Oc1ccc(Nc2nc(Nc3ccc(F)c(S(N)(=O)=O)c3)ncc2F)cc1` [Compound I-74, N2-(3-Aminosulfonyl-4-fluoro)phenyl-N4-[4-(1-cyano-1-methyl)ethoxy]phenyl-5-fluoro-2,4-pyrimidinediamine], 10.8 µM. Consider `CC(C)(C#N)Oc1ccc(Nc2nc(Nc3cccc(S(N)(=O)=O)c3)ncc2F)cc1` [Compound I-76, N2-(3-Aminosulfonyl)phenyl-N4-[4-(1-cyano-1-methyl)ethoxy]phenyl-5-fluoro-2,4-pyrimidinediamine], for which the IC50 amounted to 5.14 µM. Still for that read-out and setting: as for `Cc1ccc(Nc2ncc(F)c(Nc3ccc(NC(=O)CC#N)c(Cl)c3)n2)cc1S(N)(=O)=O` [Compound I-83, N2-(3-Aminosulfonyl-4-methylphenyl)-N4-[3-chloro-4-(N-cyanoacetyl)aminophneyl]-5-fluoro-2,4-pyrimidinediamine], the figure is 14.9 µM. Consider `Cc1cc(Nc2nc(Nc3cccc(S(N)(=O)=O)c3)ncc2F)cc(C)c1OCC(N)=O` [Compound I-93, N4-(4-Aminocarbonylmethoxy-3,5-dimethyl)phenyl-N2-(3-aminosulfonyl)phenyl-5-fluoro-2,4-pyrimidinediamine], for which the IC50 came out at 23.8 µM. Still for that read-out and setting: to `CCC(=O)NS(=O)(=O)c1cccc(Nc2ncc(F)c(Nc3ccc(OCc4nc(C)no4)cc3)n2)c1` [Compound I-273] belongs 12.9 µM; to `CNS(=O)(=O)c1cc(Nc2ncc(F)c(Nc3ccc(Cc4ccncc4)cc3)n2)ccc1C` [III-75, 5-Fluoro-N2-[3-(N-methylaminosulfony)-4-methylphenyl]-5-fluoro-N4-[4-(4-pyridinylmethyl)phenyl]-2,4-pyrimidinediamine], 10.1 µM. On the same count and under the same terms, to `NS(=O)(=O)c1cccc(Nc2ncc(F)c(Nc3ccc(Cn4ccnc4)cc3)n2)c1` [III-81, N2-(3-Aminosulfonylphenyl)-5-fluoro-N4-[4-(1-imidazolylmethyl)phenyl]-2,4-pyrimidinediamine] belongs 48.3 µM; to `Cc1ccc(Nc2ncc(F)c(Nc3ccc(Cn4ccnc4)cc3)n2)cc1S(N)(=O)=O` [III-82, N2-(3-Aminosulfonyl-4-methylphenyl)-5-fluoro-N4-[4-(1-imidazolylmethyl)phenyl]-2,4-pyrimidinediamine], 24.2 µM.

These data come from patent US11827628B2, “Compositions and methods for inhibition of the JAK pathway” (Rigel Pharmaceuticals, Inc., priority 2005, dated 2023).
